# Assays:
# Assay in all cases: biochemical
# Details in all cases: read-out: % inhibition mean (Lanthascreen)
# NEK8 = NEK8 (Homo sapiens, UniProt Q86SG6)
# FYN A = FYN A (Homo sapiens, UniProt P06241)
# TGFBR2 = TGFBR2 (Homo sapiens, UniProt P37173)
# RIPK2 = RIPK2 (Homo sapiens, UniProt O43353)
# STK38L (NDR2) = STK38L (NDR2) (Homo sapiens, UniProt Q9Y2H1)
# NLK = NLK (Homo sapiens, UniProt Q9UBE8)
# ACVRL1 (ALK1) = ACVRL1 (ALK1) (Homo sapiens, UniProt P37023)
# FGFR1 V561M = FGFR1 V561M (Homo sapiens, UniProt P11362, V561M)
# CLK4 = CLK4 (Homo sapiens, UniProt Q9HAZ1)
# KIT D816V = KIT D816V (Homo sapiens, UniProt P10721, D816V)
# CDK8/cyclin C = CDK8/cyclin C (Homo sapiens, UniProt P49336)
# PRKACB (PRKAC beta) = PRKACB (PRKAC beta) (Homo sapiens, UniProt P22694)
# KIT N822K = KIT N822K (Homo sapiens, UniProt P10721, N822K)
# HUNK = HUNK (Homo sapiens, UniProt P57058)
# MAP2K1 (MEK1) = MAP2K1 (MEK1) (Homo sapiens, UniProt Q02750)
# DDR2 T654M = DDR2 T654M (Homo sapiens, UniProt Q16832, T654M)
# IRAK3 = IRAK3 (Homo sapiens, UniProt Q9Y616)
# AMPK (A1/B2/G1) = AMPK (A1/B2/G1) (Homo sapiens, UniProt Q13131)
# TNK2 (ACK) = TNK2 (ACK) (Homo sapiens, UniProt Q07912)
# [1] = biological target: MAP3K7/MAP3K7IP1 (TAK1-TAB1) (Homo sapiens, UniProt O43318)
# SIK1 = SIK1 (Homo sapiens, UniProt P57059)
# BRAF = BRAF (Homo sapiens, UniProt P15056)
# TEK (TIE2) R849W = TEK (TIE2) R849W (Homo sapiens, UniProt Q02763, R849W)
# MAP2K4 (MEK4) = MAP2K4 (MEK4) (Homo sapiens, UniProt P45985)
# ALK L1196M = ALK L1196M (Homo sapiens, UniProt Q9UM73, L1196M)
# [2] = biological target: MAP2K6 (MKK6) S207E T211E (Homo sapiens, UniProt P52564, S207E/T211E)
# AMPK (A1/B1/G2) = AMPK (A1/B1/G2) (Homo sapiens, UniProt Q13131)
# BRSK2 = BRSK2 (Homo sapiens, UniProt Q8IWQ3)
# Sequence of BRSK2 (Q8IWQ3 whole entry): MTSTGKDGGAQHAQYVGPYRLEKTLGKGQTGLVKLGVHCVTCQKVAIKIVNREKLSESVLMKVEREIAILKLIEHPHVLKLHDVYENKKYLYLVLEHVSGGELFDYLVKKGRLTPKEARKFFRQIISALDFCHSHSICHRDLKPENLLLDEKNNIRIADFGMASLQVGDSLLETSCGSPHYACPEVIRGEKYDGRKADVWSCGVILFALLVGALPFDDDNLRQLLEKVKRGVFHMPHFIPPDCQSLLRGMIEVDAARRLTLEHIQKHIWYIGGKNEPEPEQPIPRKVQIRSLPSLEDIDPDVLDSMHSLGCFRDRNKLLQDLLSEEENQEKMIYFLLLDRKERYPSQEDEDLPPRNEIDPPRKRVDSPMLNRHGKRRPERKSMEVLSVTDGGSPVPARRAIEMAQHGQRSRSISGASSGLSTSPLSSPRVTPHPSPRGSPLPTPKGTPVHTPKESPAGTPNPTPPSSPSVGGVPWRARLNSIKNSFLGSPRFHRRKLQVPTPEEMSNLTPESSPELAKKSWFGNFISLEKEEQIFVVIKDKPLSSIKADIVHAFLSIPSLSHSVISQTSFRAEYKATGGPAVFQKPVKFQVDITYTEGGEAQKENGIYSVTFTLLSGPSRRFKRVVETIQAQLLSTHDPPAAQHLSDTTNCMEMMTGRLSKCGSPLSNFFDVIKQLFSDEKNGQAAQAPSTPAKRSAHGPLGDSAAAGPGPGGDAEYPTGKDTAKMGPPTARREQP
# Sequence of KIT D816V (P10721 whole entry D816V): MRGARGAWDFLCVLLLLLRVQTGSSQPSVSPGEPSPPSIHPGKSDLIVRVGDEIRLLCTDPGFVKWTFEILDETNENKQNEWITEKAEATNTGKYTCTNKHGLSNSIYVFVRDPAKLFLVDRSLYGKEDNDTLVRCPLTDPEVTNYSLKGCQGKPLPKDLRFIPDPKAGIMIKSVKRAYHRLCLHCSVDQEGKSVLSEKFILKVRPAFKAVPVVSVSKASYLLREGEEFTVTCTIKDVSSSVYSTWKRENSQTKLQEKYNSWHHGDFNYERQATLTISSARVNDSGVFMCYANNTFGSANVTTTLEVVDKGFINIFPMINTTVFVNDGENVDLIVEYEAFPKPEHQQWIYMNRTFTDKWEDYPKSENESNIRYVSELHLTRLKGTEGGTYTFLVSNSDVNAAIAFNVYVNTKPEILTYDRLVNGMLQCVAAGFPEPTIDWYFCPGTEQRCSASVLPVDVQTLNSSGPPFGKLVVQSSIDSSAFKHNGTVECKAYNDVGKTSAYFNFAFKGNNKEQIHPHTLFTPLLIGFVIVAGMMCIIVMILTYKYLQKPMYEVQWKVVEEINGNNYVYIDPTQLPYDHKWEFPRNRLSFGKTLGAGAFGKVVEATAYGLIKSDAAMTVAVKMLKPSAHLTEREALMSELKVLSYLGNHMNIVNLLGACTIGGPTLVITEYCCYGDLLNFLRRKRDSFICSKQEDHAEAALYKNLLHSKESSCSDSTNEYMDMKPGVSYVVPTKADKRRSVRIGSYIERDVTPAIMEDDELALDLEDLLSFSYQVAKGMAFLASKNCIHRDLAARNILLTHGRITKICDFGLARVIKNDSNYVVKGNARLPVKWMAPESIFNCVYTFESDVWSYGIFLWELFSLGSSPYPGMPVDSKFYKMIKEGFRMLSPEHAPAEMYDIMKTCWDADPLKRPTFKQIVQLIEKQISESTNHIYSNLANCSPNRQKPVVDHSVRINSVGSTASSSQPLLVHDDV
# Sequence of NLK (Q9UBE8 whole entry): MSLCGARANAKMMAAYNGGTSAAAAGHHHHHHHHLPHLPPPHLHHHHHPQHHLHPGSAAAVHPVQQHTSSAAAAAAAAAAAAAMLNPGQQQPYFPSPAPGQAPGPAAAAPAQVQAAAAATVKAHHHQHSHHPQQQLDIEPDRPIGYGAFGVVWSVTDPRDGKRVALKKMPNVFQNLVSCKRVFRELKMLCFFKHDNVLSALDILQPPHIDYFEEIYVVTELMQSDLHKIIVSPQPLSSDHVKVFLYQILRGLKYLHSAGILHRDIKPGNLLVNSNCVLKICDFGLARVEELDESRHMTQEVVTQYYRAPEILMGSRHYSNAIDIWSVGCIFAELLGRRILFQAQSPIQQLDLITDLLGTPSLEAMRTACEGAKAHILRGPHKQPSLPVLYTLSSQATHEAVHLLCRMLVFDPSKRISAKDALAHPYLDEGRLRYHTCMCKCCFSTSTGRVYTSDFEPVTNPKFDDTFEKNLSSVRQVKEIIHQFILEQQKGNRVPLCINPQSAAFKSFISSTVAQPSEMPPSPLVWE
# Sequence of ACVRL1 (ALK1) (P37023 whole entry): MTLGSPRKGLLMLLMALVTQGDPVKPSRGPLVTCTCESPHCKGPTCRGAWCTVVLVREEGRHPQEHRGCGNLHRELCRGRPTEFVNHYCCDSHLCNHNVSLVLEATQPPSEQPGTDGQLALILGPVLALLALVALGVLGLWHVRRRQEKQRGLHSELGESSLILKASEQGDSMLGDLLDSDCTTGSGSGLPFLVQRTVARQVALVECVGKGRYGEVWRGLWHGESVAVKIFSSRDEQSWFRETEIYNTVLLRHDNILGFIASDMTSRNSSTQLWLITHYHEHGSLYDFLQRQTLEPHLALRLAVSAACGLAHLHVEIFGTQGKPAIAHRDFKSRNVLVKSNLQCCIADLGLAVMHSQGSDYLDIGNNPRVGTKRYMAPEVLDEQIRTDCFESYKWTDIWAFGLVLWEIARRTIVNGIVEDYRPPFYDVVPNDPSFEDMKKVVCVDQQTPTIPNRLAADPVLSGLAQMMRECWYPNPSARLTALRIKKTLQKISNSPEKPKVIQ
# Sequence of FGFR1 V561M (P11362 whole entry V561M): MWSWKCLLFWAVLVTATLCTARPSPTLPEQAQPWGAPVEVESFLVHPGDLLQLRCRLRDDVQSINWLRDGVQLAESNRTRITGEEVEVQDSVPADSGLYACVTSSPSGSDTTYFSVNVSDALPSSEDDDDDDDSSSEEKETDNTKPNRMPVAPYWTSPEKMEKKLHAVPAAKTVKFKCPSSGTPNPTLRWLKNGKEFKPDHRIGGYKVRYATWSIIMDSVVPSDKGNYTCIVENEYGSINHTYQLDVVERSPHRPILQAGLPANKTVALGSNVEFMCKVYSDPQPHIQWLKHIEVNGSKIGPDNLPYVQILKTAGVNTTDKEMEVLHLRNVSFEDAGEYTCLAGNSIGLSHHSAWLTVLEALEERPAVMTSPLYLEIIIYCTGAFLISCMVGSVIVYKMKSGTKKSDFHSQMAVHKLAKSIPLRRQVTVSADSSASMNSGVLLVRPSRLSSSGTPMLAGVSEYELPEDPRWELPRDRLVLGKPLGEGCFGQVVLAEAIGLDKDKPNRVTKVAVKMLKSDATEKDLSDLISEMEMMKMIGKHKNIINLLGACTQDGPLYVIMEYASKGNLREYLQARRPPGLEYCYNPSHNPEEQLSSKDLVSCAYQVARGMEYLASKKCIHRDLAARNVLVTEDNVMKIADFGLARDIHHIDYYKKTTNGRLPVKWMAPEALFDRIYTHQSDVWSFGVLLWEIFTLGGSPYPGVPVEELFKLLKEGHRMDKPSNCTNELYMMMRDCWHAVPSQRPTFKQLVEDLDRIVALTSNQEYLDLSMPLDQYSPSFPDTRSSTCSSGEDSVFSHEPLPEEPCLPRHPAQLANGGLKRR
# Sequence of CDK8/cyclin C (P49336 whole entry): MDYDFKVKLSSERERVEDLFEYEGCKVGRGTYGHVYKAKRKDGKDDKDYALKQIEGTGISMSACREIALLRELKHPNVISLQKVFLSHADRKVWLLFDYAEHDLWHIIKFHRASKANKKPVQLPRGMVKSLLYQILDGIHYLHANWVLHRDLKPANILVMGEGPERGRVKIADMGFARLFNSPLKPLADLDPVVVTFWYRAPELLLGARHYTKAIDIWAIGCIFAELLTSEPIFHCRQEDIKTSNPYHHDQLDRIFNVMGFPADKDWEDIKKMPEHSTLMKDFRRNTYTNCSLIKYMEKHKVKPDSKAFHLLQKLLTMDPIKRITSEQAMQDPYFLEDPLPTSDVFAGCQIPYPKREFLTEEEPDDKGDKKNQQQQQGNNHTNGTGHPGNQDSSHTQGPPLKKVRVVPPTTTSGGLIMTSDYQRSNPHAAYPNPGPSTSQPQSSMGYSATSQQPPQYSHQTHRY
# Sequence of CDK8/cyclin C (P24863 whole entry partner): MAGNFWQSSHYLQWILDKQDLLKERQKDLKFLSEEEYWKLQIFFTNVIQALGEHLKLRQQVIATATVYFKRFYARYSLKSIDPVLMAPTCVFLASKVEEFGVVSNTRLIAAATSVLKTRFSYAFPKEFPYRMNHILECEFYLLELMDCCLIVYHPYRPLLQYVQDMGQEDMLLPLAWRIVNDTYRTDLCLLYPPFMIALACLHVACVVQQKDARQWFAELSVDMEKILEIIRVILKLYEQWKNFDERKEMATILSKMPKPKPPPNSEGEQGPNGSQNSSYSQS
# Sequence of MAP2K6 (MKK6) S207E T211E (P52564 whole entry S207E/T211E): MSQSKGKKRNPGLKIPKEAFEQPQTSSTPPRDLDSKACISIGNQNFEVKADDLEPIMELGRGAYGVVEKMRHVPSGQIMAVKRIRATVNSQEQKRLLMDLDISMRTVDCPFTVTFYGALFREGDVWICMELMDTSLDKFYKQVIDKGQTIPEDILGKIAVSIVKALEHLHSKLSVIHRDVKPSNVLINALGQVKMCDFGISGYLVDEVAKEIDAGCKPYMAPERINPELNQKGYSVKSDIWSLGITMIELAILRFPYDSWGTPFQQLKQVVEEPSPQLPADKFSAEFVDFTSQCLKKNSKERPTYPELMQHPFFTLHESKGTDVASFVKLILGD
# Sequence of KIT N822K (P10721 whole entry N822K): as the sequence (P10721 whole entry D816V) above, with V816D, N822K counted along it
structure (smiles),measurement,setting,value
"COc1ccc2nc3cc(Cl)ccc3c(Nc3cc(CN4CCCC4)c(O)c(CN4CCCC4)c3)c2n1 [Pyronaridine, 4-[(7-Chloro-2-methoxybenzo[b][1,5]naphthyridin-10-yl)amino]-2,6-bis(1-pyrrolidinylmethyl)phenol phosphate (1:4)]",inhibition at 1 µM,NEK8,0%
same,inhibition at 1 µM,FYN A,-3%
same,inhibition at 1 µM,TGFBR2,-4%
same,inhibition at 1 µM,RIPK2,1%
same,inhibition at 1 µM,STK38L (NDR2),-7%
same,inhibition at 1 µM,NLK,8%
same,inhibition at 1 µM,ACVRL1 (ALK1),12%
same,inhibition at 1 µM,FGFR1 V561M,5%
same,inhibition at 1 µM,CLK4,6%
same,inhibition at 1 µM,KIT D816V,-3%
same,inhibition at 1 µM,CDK8/cyclin C,3%
same,inhibition at 1 µM,PRKACB (PRKAC beta),12%
same,inhibition at 1 µM,KIT N822K,14%
same,inhibition at 1 µM,HUNK,-1%
same,inhibition at 1 µM,MAP2K1 (MEK1),1%
same,inhibition at 1 µM,DDR2 T654M,-11%
same,inhibition at 1 µM,IRAK3,-5%
same,inhibition at 1 µM,AMPK (A1/B2/G1),-2%
same,inhibition at 1 µM,TNK2 (ACK),1%
same,inhibition at 1 µM,[1],1%
same,inhibition at 1 µM,SIK1,2%
same,inhibition at 1 µM,BRAF,-11%
same,inhibition at 1 µM,TEK (TIE2) R849W,-3%
same,inhibition at 1 µM,MAP2K4 (MEK4),1%
same,inhibition at 1 µM,ALK L1196M,-3%
same,inhibition at 1 µM,[2],10%
same,inhibition at 1 µM,AMPK (A1/B1/G2),-7%
same,inhibition at 1 µM,BRSK2,4%

# From doi:10.1101/2021.09.30.462449v1 (biorxiv, 2021)
